Laboratory results reported in patent publication US6127543A, “Antimalarial organometallic iron complexes” (Universite des Sciences et Technologies de Lille, priority 1995, dated 2000).
In brackets after ≈: the same amount, converted by molar mass. Like-named read-outs stand apart in the source and are kept apart here.

Tests used:
[1] = tested on: field strains (Francevilloises strains); assay: In vitro inhibition of parasite proliferation (3[H] hypoxanthine incorporation), field strains; type: cell-based, Plasmodium falciparum
Method: As mentioned above, the in vitro activity of organometallic complexes of the invention was measured on field strains.
(§1) The proliferation of the parasites is measured by incorporation of ^3 [H] hypoxanthine applied to the cultures 16 hours before the end of the culture. The radioactive hypoxanthine is absorbed by the developing parasites. The quantity absorbed is measured by a Beta counter in counts per minute.

[2] = tested on: P. falciparum line FCM 6 (chloroquinine-resistant); assay: microbe, parasite or virus in culture; type: cell-based; details: Plasmodium falciparum, FCM6, chloroquinine-resistant; two experiments, one line each
Method: as §1
(§2) Three P. faciparum lines M25, chloroquinine-sensitive, and FCM 6 and FCM 17, chloroquinine-resistant, were cultured at a parasitemia rate approaching 1%, at the trophozoite stage, for a period of 48 hours.

[3] = tested on: P. falciparum line FCM 17 (chloroquinine-resistant); assay: microbe, parasite or virus in culture; type: cell-based; details: Plasmodium falciparum, FCM17, chloroquinine-resistant; two experiments, one line each
Method: as §1, §2

P. yoelii, strain NS = assay: In vivo test in mice infected with chloroquinine-resistant P. yoelii, strain NS; details: 10 mg/kg
P. berghei, N strain = assay: In vivo test in mice infected with P. berghei, N strain; details: for Mortality: female SWISS mice, 4 subcutaneous injections D0-D2
Method: Methodology: the laboratory mice can be infected with various strains of rodent Plasmodium. Female SWISS mice (about 30 g) (5 per group) were inoculated on D0 with […] P. berghei parasites, chloroquinine-sensitive, lethal strain. The mice were treated between D0 and D2 using 4 subcutaneous injections of chloroquinine or of compound SN1, with a total dose of 1 or 10 mg/kg of weight. The parasitemia and mortality were monitored from D3, for at least 40 days.
The compound SN1 and its salt, SN1 ditartrate, were tested.

[4] = tested on: P. falciparum line M25 (chloroquinine-sensitive); assay: In vitro activity on established line M25 (48 h culture); type: cell-based; details: Plasmodium falciparum, two experiments, one line each
Method: as §1, §2

SMILES: CCN(CC)CCCC(C)Nc1ccnc2cc(Cl)ccc12 (centres unmarked) [Chloroquinine]
- IC50 ([1]; Plasmodium falciparum, Strain No. 17): 200 nM
- IC50 ([1]; Plasmodium falciparum, Strain No. 265): > 1000 nM
- IC50 ([1]; Plasmodium falciparum, Strain No. 309): 980 nM
- IC50 ([1]; Plasmodium falciparum, Strain No. 823): > 1000 nM
- IC50 ([1]; Plasmodium falciparum, Strain No. 917): 190 nM
- IC50 ([1]; Plasmodium falciparum, Strain No. 926): > 1000 nM
- IC50 ([1]; Plasmodium falciparum, Strain No. 935): > 1000 nM
- IC50 ([1]; Plasmodium falciparum, read-out: IC50 (range over strains), Francevilloises strains, 7 strains tested): 190 to 1000 nM
- IC50 ([1]; Plasmodium falciparum, read-out: ID 50, Strain No. 17): 2000 nM
- IC50 ([1]; Plasmodium falciparum, read-out: ID 50, Strain No. 265): > 10000 nM
- IC50 ([1]; Plasmodium falciparum, read-out: ID 50, Strain No. 309): 9800 nM
- IC50 ([1]; Plasmodium falciparum, read-out: ID 50, Strain No. 823): > 10000 nM
- IC50 ([1]; Plasmodium falciparum, read-out: ID 50, Strain No. 917): 1900 nM
- IC50 ([1]; Plasmodium falciparum, read-out: ID 50, Strain No. 926): > 10000 nM
- IC50 ([1]; Plasmodium falciparum, read-out: ID 50, Strain No. 935): > 10000 nM
- chloroquinine-resistance of the strains ([1]; in words, Francevilloises strains): high chloroquinine-resistance
- IC50 [2]: 0.492 µg/mL (≈ 1.54 µM)
- IC50 [3]: 0.555 µg/mL (≈ 1.74 µM)
- parasites detected / parasitemia (P. yoelii, strain NS): high parasitemia
- Mortality (P. berghei, N strain; Exp 1, total dose 1 mg/kg): 5/5
- Mortality (P. berghei, N strain; Exp 1, total dose 10 mg/kg): 5/5
- Mortality (P. berghei, N strain; Exp 2, total dose 1 mg/kg): 5/5
- Mortality (P. berghei, N strain; Exp 2, total dose 10 mg/kg): 5/5
- IC50 [4]: 0.069 µg/mL (≈ 0.216 µM)

SMILES: CN(C)Cc1ccc[c-]1CNc1ccnc2cc(Cl)ccc12.[Fe+2].c1cc[cH-]c1 (centres unmarked) [SN1]
- IC50 ([1]; Strain No. 17, read-out: IC50): 20 nM
- IC50 ([1]; Strain No. 265, read-out: IC50): 170 nM
- IC50 ([1]; Strain No. 309, read-out: IC50): 110 nM
- IC50 ([1]; Strain No. 823, read-out: IC50): 120 nM
- IC50 ([1]; Strain No. 917, read-out: IC50): 10 nM
- IC50 ([1]; Strain No. 926, read-out: IC50): 230 nM
- IC50 ([1]; Strain No. 935, read-out: IC50): 120 nM
- action on the sole chloroquinine-resistant strain tested so far ([1]; in words, in vitro): marked action
- action on the inhibition of parasitemia ([1]; in words, in vitro, compared with quinine): greater action on the inhibition of parasitemia than quinine
- Mortality (P. berghei, N strain; Exp 1, total dose 1 mg/kg): 5/5
- Mortality (P. berghei, N strain; Exp 1, total dose 10 mg/kg): 1/5
- Mortality (P. berghei, N strain; Exp 2, total dose 1 mg/kg): 5/5
- Mortality (P. berghei, N strain; Exp 2, total dose 10 mg/kg): 0/5
- in vivo activity compared with chloroquinine (P. berghei, N strain; in words, mice, P. berghei): better activity than chloroquinine in vivo
